Assay results reported in article PMC2982748 (Arteriosclerosis, thrombosis, and vascular biology, 2010).

Target: P2Y12 (Homo sapiens, UniProt Q9H244)
Assay: β-arrestin recruitment
Assay type: cell-based

P2Y12, sequence (Q9H244 whole entry): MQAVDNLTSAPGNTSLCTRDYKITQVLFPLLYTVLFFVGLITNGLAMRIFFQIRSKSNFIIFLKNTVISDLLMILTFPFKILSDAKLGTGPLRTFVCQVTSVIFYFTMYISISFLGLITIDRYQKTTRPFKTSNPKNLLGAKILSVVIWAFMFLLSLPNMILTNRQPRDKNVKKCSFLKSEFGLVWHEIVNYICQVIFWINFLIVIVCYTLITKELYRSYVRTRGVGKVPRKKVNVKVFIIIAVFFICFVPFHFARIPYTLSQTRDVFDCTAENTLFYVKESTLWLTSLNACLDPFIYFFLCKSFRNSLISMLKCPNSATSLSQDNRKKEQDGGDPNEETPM

Row | Compound | EC50
1 | Nc1ncnc2c1ncn2[C@@H]1O[C@H](COP(=O)(O)OP(=O)(O)O)[C@@H](O)[C@H]1O [ADP] | 5000 nM
2 | CCCCC/C=C\C\C=C/C=C/C=C/[C@@H](SC[C@H](N)C(=O)O)[C@@H](O)CCCC(=O)O [LTE4] | 0.013 nM
